Data as given in patent US4064010A, “Purification of uricase” (Eastman Kodak Company, priority 1976, dated 1977).

Target: Micrococcus luteus NRRL B-8166 uricase
Assay: Assay of uricase (spectrophotometric, disappearance of uric acid at 290 nm)
Type: biochemical
Description: Uricase was assayed spectrophotometrically by following the disappearance of uric acid at 290 nm using a modification of the procedure described by Mahler et. al, J. Biol. Chem., 216, p. 625, (1955). Assay tubes contained 2.7 ml 50 mM KPi buffer pH 8.6, 0.1 mM sodium EDTA, 0.05 ml 6 mM urate, plus enzyme and water to give a final volume of 3.0 ml. Changes or additions to the assay mixtures were made when necessary. Tubes were incubated for 5 minutes at 30° C; the reaction was started by adding enzyme. Molar extinction coefficient for uric acid at 290 nm is 12,300. Activity was expressed in units of uricase activity, where a unit is that amount of enzyme which catalyzes the oxidation of one μmole of uric acid per minute at 30° C and pH 8.6.

## O=C(O)c1nc(=O)[nH]c(=O)[nH]1 [oxonate]
read-out: inhibition constant for oxonate
  Ki: 4.5 µM

## O=c1[nH]c(=O)c2[nH]c(=O)[nH]c2[nH]1 [uric acid]
Substrate not given, the uricase assay uses urate, KPi buffer pH 8.6, 30° C, read-out: Michaelis constant
  Km: 37 µM
